Data reported in PMC6222422, “Synthesis and Biological Evaluation of Novel Indole-Derived Thioureas” (Molecules : A Journal of Synthetic Chemistry and Natural …, 2018).

Legend:
[1] = in vitro; settings: cattle (Bos taurus)
[2] = tested on: YFV; experiment: microbe, parasite or virus in culture; assay type: cell-based; settings: Yellow fever virus, BHK, read-out: YFV EC50
[3] = tested on: RSV; experiment: microbe, parasite or virus in culture; assay type: cell-based, human respiratory syncytial virus; settings: for EC50: human respiratory syncytial virus, Vero 76, read-out: RSV EC50
[4] = tested on: CV-B5; experiment: microbe, parasite or virus in culture; assay type: cell-based, coxsackievirus B5; settings: Enterovirus B, CVB5, Vero 76, read-out: CV-B5 EC50
[5] = in vitro; settings: African green monkey (Cercopithecus aethiops)
[6] = in vitro; settings: human
[7] = tested on: MDBK cells
[8] = tested on: VSV; experiment: microbe, parasite or virus in culture; assay type: cell-based; settings: Vesicular stomatitis virus, Vero 76, read-out: VSV EC50
[9] = tested on: BVDV; experiment: microbe, parasite or virus in culture; assay type: cell-based, bovine viral diarrhoea virus; settings: for EC50: Bovine viral diarrhea virus isolates and strains, MDBK, in Bos taurus, read-out: BVDV EC50
[10] = tested on: VV; experiment: microbe, parasite or virus in culture; assay type: cell-based; settings: Orthopoxvirus vaccinia, Vero 76, read-out: VV EC50
[11] = in vitro; settings: Syrian hamster (Mesocricetus auratus)
[12] = tested on: HSV-1; experiment: microbe, parasite or virus in culture; assay type: cell-based, human herpes 1; settings: Human alphaherpesvirus 1, Vero 76, read-out: HSV-1 EC50
[13] = tested on: Reo-1; experiment: microbe, parasite or virus in culture; assay type: cell-based, reovirus type-1; settings: for EC50: Reovirus sp., BHK, read-out: Reo-1 EC50
[14] = tested on: HIV-1; experiment: microbe, parasite or virus in culture; settings: Human immunodeficiency virus 1, MT4, read-out: HIV-1 EC50
[15] = tested on: Sb-1; experiment: microbe, parasite or virus in culture; assay type: cell-based, poliovirus type-1; settings: Enterovirus C, Vero 76, read-out: Sb-1 EC50
[16] = tested on: BHK cells; settings: Syrian hamster (Mesocricetus auratus)

## S=C(NCCc1ccccc1)NCCc1c[nH]c2ccccc12 [Compound 16, 1-(2-(1H-Indol-3-yl)ethyl)-3-phenethylthiourea]
[1]
  CC50: > 100 µM
[2]
  EC50: > 18 µM
[3]
  activity against RSV (in words): moderately active
  EC50: 30 ± 2.6 µM
[4]
  EC50: 18 ± 1.7 µM
[5]
  CC50: > 100 µM
[6]
  CC50: 49 µM
[7]
  cytotoxicity for MDBK cell lines (in words): lack of cytotoxicity
[8]
  EC50: > 100 µM
[9]
  activity against BVDV (in words): showed activity
  EC50: 46 µM
[10]
  EC50: > 100 µM
[11]
  CC50: 18 µM
[12]
  EC50: > 100 µM
[13]
  EC50: > 18 µM
[14]
  EC50: > 49 µM
[15]
  EC50: > 100 µM

## C=CCNC(=S)NCCc1c[nH]c2ccccc12 [Compound 18, 1-(2-(1H-Indol-3-yl)ethyl)-3-allylthiourea]
[1]
  CC50: > 100 µM
[2]
  EC50: > 100 µM
[3]
  EC50: > 100 µM
[4]
  EC50: > 100 µM
[5]
  CC50: > 100 µM
[6]
  CC50: > 100 µM
[8]
  EC50: > 100 µM
[9]
  EC50: > 100 µM
[10]
  EC50: > 100 µM
[11]
  CC50: > 100 µM
[16]
  CC50: > 100 µM
[12]
  EC50: > 100 µM
[13]
  activity against Reo-1 (in words): not particularly significant
  EC50: 61 µM
[14]
  EC50: > 100 µM
[15]
  EC50: > 100 µM

## CCOC(=O)NC(=S)NCCc1c[nH]c2ccccc12 [Compound 20, 1-(2-(1H-Indol-3-yl)ethyl)-3-ethoxycarbonylthiourea]
[1]
  CC50: > 100 µM
[2]
  EC50: > 100 µM
[3]
  EC50: > 100 µM
[4]
  EC50: > 100 µM
[5]
  CC50: > 100 µM
[6]
  CC50: > 100 µM
[7]
  cytotoxicity for MDBK cell lines (in words): lack of cytotoxicity
[8]
  EC50: > 100 µM
[9]
  activity against BVDV (in words): showed activity
  EC50: 35 ± 2.8 µM
[10]
  EC50: > 100 µM
[11]
  CC50: > 100 µM
[16]
  CC50: > 100 µM
[12]
  EC50: > 100 µM
[13]
  EC50: > 100 µM
[14]
  EC50: > 100 µM
[15]
  EC50: > 100 µM
